Test results: patent US20110123530A1, “COMPOSITIONS AND METHODS FOR TREATING AND DIAGNOSING ASTHMA” (priority 2008, published 2011)

How the values were obtained:
Type in all cases: in vivo, human
[1] = tested on: serum periostin; assay: Serum periostin electrochemiluminescent assay (ECLA); settings: asthmatics on inhaled corticosteroids (N = 51) vs No ICS (N = 49)
Description: (§1) Serum IgE was measured by UCSF clinical laboratories or by ELISA using a human serum IgE ELISA kit according to manufacturer's instructions (Bethyl Laboratories). Serum CEA was measured using a human serum CEA ELISA kit according to manufacturer's instructions (Alpco Diagnostics). We developed an electrochemiluminescent assay (ECLA) to measure serum periostin using anti-periostin antibodies (R&D systems). Briefly, monoclonal anti-periostin was coated onto plates at 1.5 micrograms/ml in sodium carbonate buffer, pH 9.6 overnight at 4° C. Plates were blocked in assay buffer (1×PBS pH 7.4, 0.35 M NaCl, 0.5% BSA, 0.05% Tween 20, 0.25% CHAPS, 5 mM EDTA, 15PPM Proclin)+3% BSA for 2 hours at room temperature, then washed 4× with TBST (Tris-buffered saline+0.1% Tween-20). Serum was diluted 1:5 in assay buffer and incubated with agitation at room temperature for 2 h, then washed 4× with TBST. Recombinant periostin (R&D Systems) was used to establish a standard range. […] Reading buffer (Meso Scale Devices) was added and electrochemiluminescence was read (Meso Scale Devices). […] In addition, we measured IgE and YKL-40, a serum marker previously described to be elevated in some asthmatics, in these same sera. […]

[2] = tested on: serum IgE; assay: Serum IgE (clinical laboratory or ELISA); settings: asthmatics on inhaled corticosteroids (N = 51) vs No ICS (N = 49)
Description: as §1

[3] = tested on: serum CEA; assay: Serum CEA ELISA; settings: asthmatics on inhaled corticosteroids (N = 51) vs No ICS (N = 49)
Description: as §1

[4] = tested on: subjects with asthma; assay: Randomized controlled trial of inhaled fluticasone or placebo: FEV1 by spirometry; settings: for Improvement in FEV1 as compared to subjects treated with placebo: inhaled fluticasone, 4 and 8 weeks; for ΔFEV1 with fluticasone at 4 weeks / ΔFEV1 with fluticasone 8 weeks: asthma, inhaled fluticasone 500 μg twice daily, mean ± SD
Description: “Forced expiratory volume (FEV1)” refers to a standard test that measures the volume of air expelled in the first second of a forced expiration. […] To perform spirometry, a person inhales deeply, closes the mouth tightly around the tube and then exhales through the tubing while measurements are taken. The volume of air exhaled, and the length of time each breath takes is recorded and analyzed. Spirometry results are expressed as a percentage. Examples of normal spirometry results include a FEV1 of 75 percent of vital capacity after one second. An example of abnormal spirometry results include a reading of less than 80 percent of the normal predicted value. An abnormal result usually indicates the presence of some degree of obstructive lung disease such as asthma, emphysema or chronic bronchitis, or restrictive lung disease such as pulmonary fibrosis. For example, FEV1 values (percentage of predicted) can be used to classify the obstruction that may occur with asthma and other obstructive lung diseases like emphysema or chronic bronchitis: FEV1 […] to 79 percent predicted=mild obstruction, FEV1 40 percent to 59 percent predicted=moderate obstruction, and FEV1 less than 40 percent predicted=severe obstruction. Thirty-two of the subjects with asthma had also been enrolled in a double-blind randomized controlled clinical trial of inhaled fluticasone (500 μg, twice daily, N=19) or matched placebo (N=13) (ClinicalTrials.gov Identifier: NCT00187499). The trial was designed to determine the effects of inhaled steroid (fluticasone) on airway gene expression and to relate gene expression changes to improvements in lung function. The asthma subjects in the clinical trial had undergone baseline bronchoscopy and had been randomized to receive study medication before undergoing repeat bronchoscopy one week later after starting study drug. Asthma subjects continued study medication for a total of 8 weeks. Healthy control subjects and smokers were enrolled in one of three cross-sectional studies, which comprised two visits each, the first for characterization and the second for bronchoscopy 1 week later. Thirty-five subjects had adequate baseline bronchoscopy, and 32 had RNA available from epithelial brushings at both bronchoscopies. Lung function was measured (by spirometry) after 4 weeks and 8 weeks on study medication, and a final spirometry was completed after a one week run-out. Methods for bronchoscopy, epithelial brushing, bronchoalveaolar lavage, spirometry, and sample handling were identical across all studies. Bronchoalveolar lavage (BAL) was performed by instilling 4 aliquots of 50 ml of sterile saline into either the lingula or right middle lobe, with recovery by suction. Cell counts were performed using a hemocytometer and Turks solution (1% glacial acetic acid and 0.01% gentian violet in distilled H2O). Then BAL cell differentials were performed on cytocentrifuged preparations using the Shandon Kwik-Diff stain kit (Thermo Fisher Scientific, Waltham Mass.). Thirty-two of the subjects with asthma were also enrolled in a double-blind randomized controlled clinical trial of inhaled fluticasone (500 mcg BID) or matched placebo. In addition to the inclusion criteria above, these subjects were also required to have either asthma symptoms on 2 or more days per week, or β-agonist use on 2 or more days per week, or FEV1<85% predicted. Subjects in the clinical trial underwent a baseline visit and baseline bronchoscopy as described above, were randomized to receive study medication and underwent repeat bronchoscopy one week later. Then, they continued study medication for a total of 8 weeks with scheduled re-assessment of spirometry and methacholine challenge testing. […]

For CCC(=O)O[C@]1(C(=O)SCF)[C@H](C)C[C@H]2[C@@H]3C[C@H](F)C4=CC(=O)C=C[C@]4(C)[C@@]3(F)[C@@H](O)C[C@@]21C [fluticasone, fluticasone propionate], the “Periostin, level of serum biomarker, median (range)” value [1] was 48 (0-117) ng/ml, the “IgE, level of serum biomarker, median (range)” value [2] was 132 (1-2098) IU/ml and the “CEA, level of serum biomarker, median (range)” value [3] was 1.9 (<0.2-21*) ng/ml. For the same molecule, the “Improvement in FEV1 as compared to subjects treated with placebo” value ([4]; IL-13 high asthma subphenotype) was “significant improvements in FEV1”, the “Improvements in FEV1 after a one week run out period off drug” value ([4]; IL-13 high group, week 9) was “lost” and the “Improvement in FEV1 as compared to subjects treated with placebo” value ([4]; IL-13 low asthma subphenotype) was “did not”. The “ΔFEV1 with fluticasone at 4 weeks” value ([4]; IL13 Signature Low) was 0.03 ± 0.12 L, the “ΔFEV1 with fluticasone 8 weeks” value ([4]; IL13 Signature Low) was 0.04 ± 0.12 L and the “ΔFEV1 with fluticasone at 4 weeks” value ([4]; IL-13 Signature High) was 0.35 ± 0.2 L. For the same molecule, the “ΔFEV1 with fluticasone 8 weeks” value ([4]; IL-13 Signature High) was 0.25 ± 0.23 L.
